This note sets out measurements from ChEMBL document CHEMBL5120857, “Rational design, synthesis and biological evaluation of dual PARP-1/2 and TNKS1/2 inhibitors for cancer therapy” (Eur J Med Chem, 2022).

Data set [1] is described as follows: Cytotoxicity against mouse AML12 cells assessed as reduction in cell viability incubated for 7 days by MTT assay. The format is toxicity, cell-based. The settings on record: time 7 day. (Tetrazolium dyes change colour on reduction, which living cells bring about.)
Data set [2] has as its system HCT-116. Put plainly: Inhibition of Wnt/beta-Catenin signaling in human HCT-116 cells assessed as increase in axin2 levels at 10 uM by Western blot analysis. It is filed as cell-based. For orientation: Immunoblotting shows a protein as a band on a membrane.
The subject of another data set is MDA-MB-231. Put plainly: Antiproliferative activity against human MDA-MB-231 cells assessed as inhibition of cell growth incubated for 7 days by MTT assay. The format is functional, cell-based. The settings on record: MDA-MB-231, 168 h.
For data set [3], the system named is HCT-116. Put plainly: Induction of apoptosis in human HCT-116 cells assessed as late apoptotic cells at 5 uM incubated for 3 days by annexinV-FITC/propidium iodide staining based flow cytometry (reference value: 8.71 %). It is filed as functional. The settings on record: time 3 day.
Data set [4] relates to HCT-116. The data set can be described thus: Induction of apoptosis in human HCT-116 cells assessed as viable cells at 5 uM incubated for 3 days by annexinV-FITC/propidium iodide staining based flow cytometry (reference value: 60.0 %). The format is functional. The settings on record: time 3 day. A general note: Flow cytometry measures light scatter and fluorescence of single cells or particles in a stream.

For the next data set, the system named is MDA-MB-468. Put plainly: Antiproliferative activity against human MDA-MB-468 cells assessed as inhibition of cell growth incubated for 7 days by MTT assay. It is filed as functional, cell-based. As to conditions: MDA-MB-468, 168 h.
In data set [5] the test system is HCT-116. The data set can be described thus: Induction of cell cycle arrest in human HCT-116 cells assessed as G0/G1 phase cells at 5 uM incubated for 3 days by propidium iodide staining based flow cytometry (reference value: 68.35 %). The format is functional. The settings on record: time 3 day.
Data set [6] relates to HCT-116. Put plainly: Antitumor activity against human HCT-116 cells xenografted in BALB/c nude mouse assessed as tumor growth inhibition at 50 mg/kg, ip administered once daily for 28 days. It is filed as functional. As to conditions: time 28 day.
For data set [7], the system named is HCT-116. Put plainly: Induction of apoptosis in human HCT-116 cells assessed as early apoptotic cells at 5 uM incubated for 3 days by annexinV-FITC/propidium iodide staining based flow cytometry (reference value: 7.67 %). As to conditions: time 3 day. The format is functional.
Data set [8] deals with HCT-116. The data set can be described thus: Induction of cell cycle arrest in human HCT-116 cells assessed as S phase cells at 5 uM incubated for 3 days by propidium iodide staining based flow cytometry (reference value: 11.26 %). It is filed as functional. As to conditions: time 3 day.
In data set [9] the test system is HCT-116. The data set can be described thus: Inhibition of Wnt/beta-Catenin signaling in human HCT-116 cells assessed as decrease in cyclin D1 levels at 10 uM by Western blot analysis. It is filed as cell-based.
The test system of data set [10] is HCT-116. Put plainly: Antiproliferative activity against human HCT-116 cells assessed as inhibition of cell growth incubated for 7 days by MTT assay. It is filed as functional, cell-based. The settings on record: HCT-116, 168 h.
The subject of data set [11] is HCT-116. The data set can be described thus: Inhibition of PARP in human HCT-116 cells assessed as decrease in pADPr levels at 10 uM by Western blot analysis. The format is cell-based.
Data set [12] has as its system HCT-116. Put plainly: Induction of apoptosis in human HCT-116 cells assessed as necrotic cells at 5 uM incubated for 3 days by annexinV-FITC/propidium iodide staining based flow cytometry (reference value: 3.65 %). It is filed as functional. The settings on record: time 3 day.
Data set [13] deals with HCT-116. The data set can be described thus: Induction of cell cycle arrest in human HCT-116 cells assessed as G2/M phase cells at 5 uM incubated for 3 days by propidium iodide staining based flow cytometry (reference value: 68.35 %). As to conditions: time 3 day. It is filed as functional.

SMILES strings stand for the structures. The source made the active and inactive calls. No cut-off for these calls is given here.

With `O=c1[nH]nc2c3c(cccc13)N=C(CN1Cc3ccccc3C1)N2` [2X-121], in [1], the CC50 at 168 h is 1.39 µM. The inhibition entry in the data set with HCT-116 [2], in the data set with HCT-116 [9] and in the data set on HCT-116 [11] was “Active” in each case. The half-maximal inhibitory concentration (IC50) with MDA-MB-231 worked out at 2.89 µM; with MDA-MB-468 it was 4.17 µM; with HCT-116 [10], 6.71 µM. The Activity worked out at 12.6% in the data set with HCT-116 [3]; 64.78% in the data set with HCT-116 [5]; 6.11% in the data set with HCT-116 [7]; 11.73% in the data set on HCT-116 [8]; 6.45% in the data set on HCT-116 [12]; 23.49% with HCT-116 [13]. The viability at 5 µM with HCT-116 [4] (Homo sapiens, HCT-116, 72 h, read-out: Activity) came to 74.8%. In addition, in the data set with HCT-116 [6] (Mus musculus, HCT-116, 672 h, read-out: TGI), the inhibition in vivo at 50 mg/kg was 20.2%.
With `O=C(c1cc(Cc2n[nH]c(=O)c3ccccc23)ccc1F)N1CCN(C(=O)C2CC2)CC1` [OLAPARIB], the CC50 at 168 h in data set [1] is 31.1 µM. In addition, the concentration for half-maximal inhibition (IC50) with MDA-MB-231 amounted to 5.35 µM; with MDA-MB-468, 2.52 µM; with HCT-116 [10], 5.56 µM. Besides, the Activity in the data set with HCT-116 [3] worked out at 14.3%; with HCT-116 [4], 68.8%; in the data set with HCT-116 [5], 58.46%; with HCT-116 [7] it was 12.9%; in the data set on HCT-116 [8], 7.31%; in the data set on HCT-116 [12] it was 4.03%. Besides, in the data set on HCT-116 [13], the Activity is recorded as 34.23%. Besides, the TGI in the data set on HCT-116 [6] amounted to 15.36%. The inhibition entry in the data set on HCT-116 [11] is “Active”.

A word on the CC50: it is the concentration giving 50% cytotoxicity. As usually defined, the IC50 is the midpoint of a concentration-inhibition curve. Usually TGI stands for how far tumour growth fell short of that in controls.
